The values below come from US10138275B2, “Crystalline powder of cyclic peptide compound, preparation method for same, and uses thereof” (SHANGHAI TECHWELL BIOPHARMACEUTICAL CO., LTD, priority 2014, dated 2018).

Starred links: 1 amine or outer side, 2 acyl side, 3 side chain; linkers in the order of their positions; H or OH if unused. Positions of bridges follow the written chain, without caps; N, C: chain ends. Non-standard residues stand in square brackets, D forms with d. Residues, ends and D or L forms follow the SMILES beside them. *: point of attachment. hTyr(3S-OH,4S-OH,3'-OSO3H) = N[C@H](C(=O)O)[C@H](O)[C@@H](O)c1ccc(O)c(OS(=O)(=O)O)c1; Orn(4R-OH,5R-OH) = O=C([C@H](C[C@@H](O)[C@@H](O)N[*:3])N[*:1])[*:2]; Pro(3S-OH,4S-Me) = C[C@H]1CN[C@H](C(=O)O)[C@H]1O; X1 = CCCCCOc1ccc(-c2cc(-c3ccc(C(=O)*)cc3)no2)cc1; Gln(3R-OH) = NC(=O)C[C@@H](O)[C@H](N)C(=O)O; Hyp = O=C(O)[C@@H]1C[C@@H](O)CN1

Data set [1] can be described thus: Bulk density of powder by cylinder measurement. The format is physicochemical. Particulars: after drying. The protocol:
“Bulk density of powder” is a measurement standard for the relative importance of the interaction between microparticles by comparing the bulk density and tapped density of the powder. Methods for measuring bulk density of powder are known in the art; for example, it can be determined by cylinder measurement, volumetric measurement, and container measurement. Bulk density of the crystalline powder of the compound of formula I according to the present invention is determined as less than 0.7 g/mL, preferably less than 0.6 g/mL, most preferably less than 0.5 g/mL, by cylinder measurement.

The nature of data set [2]: Vacuum-drying at 25° C. with a water system until no organic solvent detected by GC; purity by HPLC. The settings on record: for time Needed (for drying): 25° C., vacuum-drying with a water system until no organic solvent detected by GC; for Purity before drying / Purity after drying: HPLC; for Purity before drying: 5 g of solids; for Purity after drying: vacuum-dried at 25° C. with a water system until no organic solvent detected by GC. The class given is physicochemical. From the text: High performance liquid chromatography (HPLC) is a common method for determining the purity of a compound, wherein a liquid is used as the mobile phase and a high-pressure transfusion system is used for pumping the mobile phase, such as single solvents with different polarities, a mixture of solvents at different proportions, or buffers, into a column packed with a stationary phase. Each component is separated in the column, and then enters into a detector for detection, thereby analyzing a sample. In the present invention, HPLC is used for determining the purity of the compound of formula I and studying the stability of a sample. Conditions of the HPLC method are listed as follows:
Analysis Column: YMC-ODS 250×4.6 mm, 5 μm;
Mobile phase: acetonitrile:phosphate buffer (pH 3.0)=45:70;
Column temperature: 35° C.;
Diluent: aqueous phosphate buffer;
Detection wavelength: 210 nm;
Gas chromatography (GC) used to separate and measure trace impurities in a compound is an accurate, qualitative and quantitative method of analysis. In the present invention, the content of organic solvents in the crystalline powder of the compound of formula I obtained in the present invention is measured by gas chromatography (GC).
5 g of solids were prepared according to the methods of Examples 2-10 and Comparative Examples 1-3 respectively, placed at 25° C., and vacuum-dried together with a water system until no organic solvent was detected through GC. The time for drying was compared, and the purity of the sample was analyzed.

The nature of data set [3]: Particle size distribution (d10, d50) by Malvern particle size analyzer / laser diffraction. The class given is physicochemical. The settings on record: for d10, particle size of the crystalline powder / d50, particle size of the crystalline powder: after drying. The protocol:
[…] Wherein, d10 and d50 are means known for indicating the particle size distribution. d50 refers to a value of particle size, and the size of 50 vol/% of particles is smaller than said value. D10 refers to a value of particle size, and the size of 10 vol/% of particles is smaller than said value. The preferred method for determining d10 and d50 is laser diffraction, d50 of the crystalline powder of the compound of formula I according to the present invention is determined as 10-100 um, and d10 is determined as 1-9 um. Preferably, d50 of the crystalline powder is 20-50 um, and d10 thereof is 1-5 um. Before solid-liquid separation, d50 of the crystalline powder of the compound of formula I is 10-100 um, and d10 thereof is 1-9 um. Preferably, d50 of the crystalline powder is 20-50 um, and d10 thereof is 3-6 um.

Data set [4] is described as follows: Ratio of dry weight to wet weight (Dry/Wet) of filtered solids. The format is physicochemical. The settings on record: wet solids weighed after filtration, before drying. From the text:
As used herein, the term “Dry/Wet” and “ratio of dry weight to wet weight” can be used interchangeably, both of which refer to the ratio of the weight of a compound without solvent(s) to the weight of the compound with solvent(s). In the present invention, wet weight of crystals is obtained by filtering the crystallized solids until no noticeable droplet outflows and weighing the solids.

The nature of data set [5]: Exposure of dried B82 crystal to the environment (moisture uptake, stability). The class given is physicochemical. From the text:
Before drying of the crystals, the content of solvent in the compound of formula I (Dry/Wet) was about 0.25, and a large amount of organic solvent was trapped in the crystal. To render the content of solvent in compliance with the requirements for active pharmaceutical ingredients (API), the drying temperature or the drying time has to be increased during the drying process. Such drying process, however, will increase the degradation product of the compound of formula I, seriously affecting the quality and stability of API.

Data set [6] can be described thus: Filtration through a Buchner funnel until no noticeable droplet outflowed. The class given is physicochemical. From the text: In this example, the precipitated solids from Examples 2-10 and Comparative Examples 1-3 were filtered through a Buchner funnel until no noticeable droplet outflowed, and the filtration processes were compared.
For data set [7] the following is noted: Ohigashi et al. 2006, cited from earlier work.

On to `CCCCCOc1ccc(-c2cc(-c3ccc(C(=O)N[C@H]4C[C@@H](O)[C@@H](O)NC(=O)[C@@H]5[C@@H](O)[C@@H](C)CN5C(=O)[C@H]([C@H](O)CC(N)=O)NC(=O)[C@H]([C@H](O)[C@@H](O)c5ccc(O)c(OS(=O)(=O)[O-])c5)NC(=O)[C@@H]5C[C@@H](O)CN5C(=O)[C@H]([C@@H](C)O)NC4=O)cc3)no2)cc1.[Na+]` [Comparative Example 1, reference compound] (X1-[Orn(4R-OH,5R-OH)]T[Hyp][hTyr(3S-OH,4S-OH,3'-OSO3H)][Gln(3R-OH)][Pro(3S-OH,4S-Me)]; lactam 1-C), for which the Bulk density in data set [1] is on record as 0.85 g/mL. Besides, in data set [1] (listed as B82-type crystals), the Bulk density result is recorded as “about 0.8 g/mL”. In data set [2], the “time Needed (for drying)” value came out at 25 h, the Purity before drying came to 99.26% and the Purity after drying is given as 97.96%. In data set [3] (B82-type crystal prepared per Example 1 of WO03/018615), the “d50 of the obtained crystals” value is 0.2-1.0 um. In data set [3], the “d10, particle size of the crystalline powder” value is on record as 0.25 um and the “d50, particle size of the crystalline powder” value came out at 0.7 um. Moreover, the “ratio of dry weight to wet weight (Dry/Wet)” value (from here on “ratio … (Dry/Wet)”) in data set [4] was found to be 0.25. For the same compound, the “ratio … (Dry/Wet)” value in data set [4] (listed as B82-type crystals) is reported as “about 0.25”. Further, in data set [5], the “moisture absorption when exposed to the environment” value is on record as “inclined to absorb moisture” and the “stability when exposed to the environment” value was “poor stability”. For the same compound, in data set [6], the Time for filtration came out at 90 min.
For the compound `CCCCCOc1ccc(-c2cc(-c3ccc(C(=O)N[C@H]4C[C@@H](O)[C@@H](O)NC(=O)[C@@H]5[C@@H](O)[C@@H](C)CN5C(=O)[C@H]([C@H](O)CC(N)=O)NC(=O)[C@H]([C@H](O)[C@@H](O)c5ccc(O)c(OS(=O)(=O)[O-])c5)NC(=O)[C@@H]5C[C@@H](O)CN5C(=O)[C@H]([C@@H](C)O)NC4=O)cc3)no2)cc1.[Na+]` [Comparative Example 2, reference compound] (X1-[Orn(4R-OH,5R-OH)]T[Hyp][hTyr(3S-OH,4S-OH,3'-OSO3H)][Gln(3R-OH)][Pro(3S-OH,4S-Me)]; lactam 1-C), in data set [2], the “time Needed (for drying)” value came to 30 h, the Purity before drying is recorded as 98.82% and the Purity after drying was 96.21%. Besides, in data set [4], the “ratio … (Dry/Wet)” value is recorded as 0.13. In data set [6], this compound displayed a Time for filtration of 150 min.
For `CCCCCOc1ccc(-c2cc(-c3ccc(C(=O)N[C@H]4C[C@@H](O)[C@@H](O)NC(=O)[C@@H]5[C@@H](O)[C@@H](C)CN5C(=O)[C@H]([C@H](O)CC(N)=O)NC(=O)[C@H]([C@H](O)[C@@H](O)c5ccc(O)c(OS(=O)(=O)[O-])c5)NC(=O)[C@@H]5C[C@@H](O)CN5C(=O)[C@H]([C@@H](C)O)NC4=O)cc3)no2)cc1.[Na+]` [Comparative Example 3, reference compound] (X1-[Orn(4R-OH,5R-OH)]T[Hyp][hTyr(3S-OH,4S-OH,3'-OSO3H)][Gln(3R-OH)][Pro(3S-OH,4S-Me)]; lactam 1-C) the same measures were 32 h, 98.74%, 96.17%, 0.1 and 300 min.
The compound `CCCCCOc1ccc(-c2cc(-c3ccc(C(=O)N[C@H]4C[C@@H](O)[C@@H](O)NC(=O)[C@@H]5[C@@H](O)[C@@H](C)CN5C(=O)[C@H]([C@H](O)CC(N)=O)NC(=O)[C@H]([C@H](O)[C@@H](O)c5ccc(O)c(OS(=O)(=O)[O-])c5)NC(=O)[C@@H]5C[C@@H](O)CN5C(=O)[C@H]([C@@H](C)O)NC4=O)cc3)no2)cc1.[Na+]` [Example 10] (X1-[Orn(4R-OH,5R-OH)]T[Hyp][hTyr(3S-OH,4S-OH,3'-OSO3H)][Gln(3R-OH)][Pro(3S-OH,4S-Me)]; lactam 1-C) yielded a Bulk density in data set [1] of 0.56 g/mL. For the same compound, in data set [2], the “time Needed (for drying)” value was found to be 9 h, the Purity before drying is recorded as 99.5% and the Purity after drying was found to be 99.43%. Further, in data set [3], the “d10, particle size of the crystalline powder” value was found to be 8.3 um and the “d50, particle size of the crystalline powder” value was found to be 100 um. The “ratio … (Dry/Wet)” value in data set [4] was 0.63.
`CCCCCOc1ccc(-c2cc(-c3ccc(C(=O)N[C@H]4C[C@@H](O)[C@@H](O)NC(=O)[C@@H]5[C@@H](O)[C@@H](C)CN5C(=O)[C@H]([C@H](O)CC(N)=O)NC(=O)[C@H]([C@H](O)[C@@H](O)c5ccc(O)c(OS(=O)(=O)[O-])c5)NC(=O)[C@@H]5C[C@@H](O)CN5C(=O)[C@H]([C@@H](C)O)NC4=O)cc3)no2)cc1.[Na+]` [compound of formula I, 5-[(1S,2S)-2-[(3S,6S,9S,11R,15S,18S,20R,21R,24S,25S,26S)-3-[(R)-2-carbamoyl-1-hydroxyethyl]-11,20,21,25-tetrahydroxy-15-[(R)-1-hydroxyethyl]-26-methyl-2,5,8,14,17,23-hexaoxo-18-[4-[5-(4-pentoxyphenyl)isoxazol-3-yl]benzoylamino]-1,4,7,13,16,22-hexaazatricyclo[22.3.0.0.0^9,13]heptacosan-6-yl]-1,2-dihydroxyethyl]-2-hydroxy phenyl sulfate] (X1-[Orn(4R-OH,5R-OH)]T[Hyp][hTyr(3S-OH,4S-OH,3'-OSO3H)][Gln(3R-OH)][Pro(3S-OH,4S-Me)]; lactam 1-C): the “content of solvent in the precipitate” value in data set [7] (amorphous precipitate before drying) is listed as “about 75%”. Moreover, the “Dry/Wet of the precipitate before drying” value in data set [7] (amorphous precipitate from acetone/ethyl acetate) is recorded as 0.25.
